In PubChem BioAssay (NCI):
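Cells were grown in 96-well plates and exposed to each compound for 48 hours at five concentrations; endpoints were interpolated linearly between bracketing concentrations, or set to the highest concentration if not reached. GI50 marks 50% less growth. TGI: total growth inhibition.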

Tests used:
Assay in all cases: growth of human tumour cells (NCI), 48 h
[1] = test system: 786-0 renal
[2] = test system: A498 renal
[3] = test system: A549 NSCLC
[4] = test system: ACHN renal
[5] = test system: BT-549 breast
[6] = test system: CAKI-1 renal
[7] = test system: CCRF-CEM leukemia
[8] = test system: COLO 205 colon
[9] = test system: DU-145 prostate
[10] = test system: EKVX NSCLC
[11] = test system: HCC-2998 colon
[12] = test system: HCT-116 colon
[13] = test system: HCT-15 colon
[14] = test system: HL-60(TB) leukemia
[15] = test system: HOP-62 NSCLC
[16] = test system: HOP-92 NSCLC
[17] = test system: HS 578T breast
[18] = test system: HT29 colon
[19] = test system: IGROV1 ovarian
[20] = test system: K-562 leukemia
[21] = test system: KM12 colon
[22] = test system: LOX IMVI melanoma
[23] = test system: M14 melanoma
[24] = test system: MALME-3M melanoma
[25] = test system: MCF7 breast
[26] = test system: MDA-MB-231 breast
[27] = test system: MDA-MB-435
[28] = test system: MOLT-4 leukemia
[29] = test system: NCI-H226 lung
[30] = test system: NCI-H23 lung
[31] = test system: NCI-H460 lung
[32] = test system: NCI-H522 lung
[33] = test system: NCI/ADR-RES ovarian
[34] = test system: OVCAR-3 ovarian
[35] = test system: OVCAR-4 ovarian
[36] = test system: OVCAR-5 ovarian
[37] = test system: OVCAR-8 ovarian
[38] = test system: PC-3 prostate
[39] = test system: RPMI-8226 leukemia
[40] = test system: RXF 393 renal
[41] = test system: SF-268 CNS
[42] = test system: SF-295 CNS
[43] = test system: SK-MEL-2 melanoma
[44] = test system: SK-MEL-28 melanoma
[45] = test system: SK-MEL-5 melanoma
[46] = test system: SK-OV-3 ovarian
[47] = test system: SN12C renal
[48] = test system: SNB-19 CNS
[49] = test system: SNB-75 CNS
[50] = test system: SR leukemia
[51] = test system: SW-620 colon
[52] = test system: T-47D breast
[53] = test system: TK-10 renal
[54] = test system: U251 CNS
[55] = test system: UACC-257 melanoma
[56] = test system: UACC-62 melanoma
[57] = test system: UO-31 renal
[58] = test system: SF-539 CNS

`COc1ccc(N2C(=O)C3c4[nH]c5ccc(C)cc5c4C4CCC(c5ccccc5)CC4C3C2=O)cc1` (centres undefined) was tested, and the TGI [1] was greater than 62.2 µM, the TGI [2] was greater than 68.8 µM and the TGI [3] was greater than 100 µM. It also gave a TGI [4] greater than 100 µM, a TGI [5] greater than 100 µM and a TGI [6] greater than 72.5 µM. It also gave a TGI [7] greater than 55.5 µM, a TGI [8] greater than 100 µM and a TGI [9] greater than 100 µM. The TGI [10] was greater than 100 µM, the TGI [11] was greater than 100 µM and the TGI [12] was greater than 100 µM. The TGI [13] was greater than 100 µM, the TGI [14] was greater than 100 µM and the TGI [15] was 26.8 µM. The TGI [16] was greater than 90.2 µM, the TGI [17] was greater than 73.4 µM and the TGI [18] was greater than 100 µM. The TGI [19] was greater than 100 µM, the TGI [20] was 98.9 µM and the TGI [21] was greater than 100 µM. The TGI [22] was greater than 100 µM, the TGI [23] was greater than 100 µM and the TGI [24] was greater than 100 µM. The TGI [25] was greater than 100 µM, the TGI [26] was greater than 49.5 µM and the TGI [27] was greater than 100 µM. For the same molecule, the TGI [28] was greater than 100 µM, the TGI [29] was greater than 100 µM and the TGI [30] was greater than 100 µM. For the same molecule, the TGI [31] was greater than 100 µM, the TGI [32] was greater than 100 µM and the TGI [33] was greater than 100 µM. For the same molecule, the TGI [34] was greater than 100 µM, the TGI [35] was greater than 82.3 µM and the TGI [36] was greater than 100 µM. It also gave a TGI [37] greater than 83.9 µM, a TGI [38] greater than 100 µM and a TGI [39] greater than 100 µM. For the same molecule, the TGI [40] was 41 µM, the TGI [41] was greater than 100 µM and the TGI [42] was greater than 100 µM. The TGI [43] was greater than 69.4 µM, the TGI [44] was greater than 100 µM and the TGI [45] was greater than 100 µM. It also gave a TGI [46] greater than 100 µM, a TGI [47] greater than 100 µM and a TGI [48] greater than 66.5 µM. The TGI [49] was 12 µM, the TGI [50] was 23.6 µM and the TGI [51] was greater than 100 µM. It also gave a TGI [52] greater than 100 µM, a TGI [53] greater than 75.3 µM and a TGI [54] of 98.6 µM. For the same molecule, the TGI [55] was greater than 100 µM, the TGI [56] was greater than 79.5 µM and the TGI [57] was greater than 100 µM.

`CCN(CC)CCOc1nc2c3ccc(Cl)cc3nn2c2ccccc12` gave a GI50 [1] of 1.69 µM, a TGI [1] of 3.67 µM and a GI50 [2] of 1.62 µM. The TGI [2] was 3.05 µM, the GI50 [3] was 1.87 µM and the TGI [3] was 4.63 µM. It also gave a GI50 [4] of 1.32 µM, a TGI [4] of 3.36 µM and a GI50 [5] of 3.54 µM. The TGI [5] was 17.5 µM, the GI50 [6] was 1.45 µM and the TGI [6] was 2.97 µM. For the same molecule, the GI50 [7] was 2.25 µM, the TGI [7] was 12.8 µM and the GI50 [8] was 1.55 µM. It also gave a TGI [8] of 4.55 µM, a GI50 [9] of 2.4 µM and a TGI [9] of 6.07 µM. For the same molecule, the GI50 [10] was 2.62 µM, the TGI [10] was 9.71 µM and the GI50 [11] was 1.62 µM. The TGI [11] was 3.43 µM, the GI50 [12] was 1.4 µM and the TGI [12] was 3.53 µM. For the same molecule, the GI50 [14] was 2.06 µM, the TGI [14] was 5.64 µM and the GI50 [15] was 2.38 µM. It also gave a TGI [15] of 12.5 µM, a GI50 [16] of 1.4 µM and a TGI [16] of 6.41 µM. The GI50 [17] was 2.59 µM, the TGI [17] was 11.3 µM and the GI50 [18] was 2.04 µM. The TGI [18] was 9.9 µM, the GI50 [19] was 1.54 µM and the TGI [19] was 4.62 µM. It also gave a GI50 [20] of 2.73 µM, a TGI [20] greater than 100 µM and a GI50 [21] of 1.96 µM. For the same molecule, the TGI [21] was 4.69 µM, the GI50 [22] was 1.44 µM and the TGI [22] was 3.05 µM. It also gave a GI50 [23] of 1.76 µM, a TGI [23] of 3.95 µM and a GI50 [24] of 1.6 µM. It also gave a TGI [24] of 3.22 µM, a GI50 [25] of 1.96 µM and a TGI [25] of 6.08 µM. The GI50 [26] was 2.02 µM, the TGI [26] was 7.03 µM and the GI50 [27] was 1.15 µM. For the same molecule, the TGI [27] was 2.79 µM, the GI50 [28] was 2.77 µM and the TGI [28] was greater than 100 µM. It also gave a GI50 [29] of 2.06 µM, a TGI [29] of 10.2 µM and a GI50 [30] of 1.81 µM. The TGI [30] was 4.9 µM, the GI50 [31] was 2.61 µM and the TGI [31] was 7.5 µM. The GI50 [32] was 2.37 µM, the TGI [32] was 6.43 µM and the GI50 [33] was 1.89 µM. The TGI [33] was 8.24 µM, the GI50 [34] was 2.86 µM and the TGI [34] was 9.42 µM. For the same molecule, the GI50 [35] was 2.78 µM, the TGI [35] was 9.06 µM and the GI50 [36] was 2.67 µM. The TGI [36] was 10.3 µM, the GI50 [37] was 2.64 µM and the TGI [37] was 55.9 µM. For the same molecule, the GI50 [38] was 2.29 µM, the TGI [38] was 9.94 µM and the GI50 [40] was 1.75 µM. For the same molecule, the TGI [40] was 3.94 µM, the GI50 [41] was 2.89 µM and the TGI [41] was 11 µM. It also gave a GI50 [42] of 1.79 µM, a TGI [42] of 4.18 µM and a GI50 [58] of 1.71 µM. It also gave a TGI [58] of 3.84 µM, a GI50 [43] of 2.16 µM and a TGI [43] of 4.94 µM. For the same molecule, the GI50 [44] was 1.89 µM, the TGI [44] was 3.57 µM and the GI50 [45] was 1.73 µM. The TGI [45] was 3.12 µM, the GI50 [46] was 2.49 µM and the TGI [46] was 21.4 µM. For the same molecule, the GI50 [47] was 2.21 µM, the TGI [47] was 10.1 µM and the GI50 [48] was 3.28 µM. The TGI [48] was 36.1 µM, the GI50 [49] was 1.58 µM and the TGI [49] was 8.35 µM. The GI50 [50] was 2.12 µM, the TGI [50] was 15.8 µM and the GI50 [51] was 1.42 µM. The TGI [51] was 4.13 µM, the GI50 [52] was 3.51 µM and the TGI [52] was 18.8 µM. For the same molecule, the GI50 [53] was 3.88 µM, the TGI [53] was 16.1 µM and the GI50 [54] was 2.11 µM. It also gave a TGI [54] of 5.4 µM, a GI50 [55] of 1.89 µM and a TGI [55] of 4.02 µM. The GI50 [56] was 1.79 µM, the TGI [56] was 3.7 µM and the GI50 [57] was 1.07 µM. For the same molecule, the TGI [57] was 2.66 µM.
